In patent publication US20250325684A1, “POTENT ANTI-CANCER CYCLOTIDES” (University of Southern California, priority 2022, published 2025):
Like-named read-outs stand apart in the source and are kept apart here. Numbered stars: 1 amine (or outer) side, 2 acyl side, 3 side chain; on linkers, the order of the positions; unused ones are H or OH. Bridge positions count the residues as written; N and C are the ends. Square brackets hold non-standard residues; d marks the D form. Peptide text beside a SMILES is read from it. I, II: the chains in the order shown. X1 = O=C(CCc1cn(CCOCCOCCOCCC(=O)[*:2])nn1)[*:1]; isoGln = NC(=O)[C@H](CCC(=O)[*:2])N[*:1]

Key:
LoVo = assay: MTT cell viability, LoVo cells; assay type: cell-based, human; conditions: LoVo colon adenocarcinoma, p53 WT
Description: (§1) Cell viability assay in several human cancer cell lines (See Tables 1 to 10). Cell lines were cultured in RPMI 1640 (or recommended medium when indicated) medium supplemented with 10% fetal calf serum, penicillin (50 IU/mL) and streptomycin ([…]) at 37° C. in 5% CO2. Cell viability studies was carried using the MTT (3-(4,5-dimethylthiazol-2-yl)-2,5-diphenyltetrazolium bromide) assay as previously described (31). Briefly, ≈2×10^3 CRC cells were be seeded in 96-well microtiter plates in 100 μL RPMI 1640 in the presence of 10% calf serum. […] After 1 h, 210 μL/well of full complemented media was added, the cells were grown for 48 h and then treated with 20 μL of a solution of MTT (5 mg/mL) for 2 h. The medium was discarded and DMSO ([…]) was added to each well and incubated with gentle shaking for 20 min at room temperature. The absorbance at 595 nm of the solution is analyzed using a Tecan Genios Multifunctional Microplate Reader (Tecan System Inc) and the background at 670 nm subtracted. RNA-Seq analysis was performed using state-of-the-art bioinformatics tools. Briefly, raw RNA-Seq reads were mapped to human genome (hg38) using STAR aligner (v2.7.3a). Gencode Release 36 reference was used for annotation. Transcript and gene expression levels were quantified using the IsoEM (37) with default parameters. Counts per million (CPM) method is used for normalization. Differential expression was done using DESeq2 with default parameters. Genes involved in different biological pathways (human) were searched from Geneontology (http://geneontology.org/). Bioinformatics results can be validated by using Partek Flow (v10.0.21.0912), a bioinformatics pipeline developed by Zymo Research (https://www.zymoresearch.com/).
(§2) Cell viability was evaluated using the MTT assay as described above.

SW620 = assay: MTT cell viability, SW620 cells; assay type: cell-based, human; conditions: SW620 colon adenocarcinoma, p53 Mutant
Description: as §1, §2

HT29 = assay: MTT cell viability, HT29 cells; assay type: cell-based, human; conditions: HT29 colon adenocarcinoma, p53 Mutant
Description: as §1, §2

SW626 = assay: MTT cell viability, SW626 cells; assay type: cell-based, human; conditions: p53 Mutant
Description: as §1, §2

Caco-2 = assay: MTT cell viability, Caco-2 cells; assay type: cell-based, human; conditions: Caco-2 colon adenocarcinoma, p53 Mutant
Description: as §1, §2

SW480 = assay: MTT cell viability, SW480 cells; assay type: cell-based, human; conditions: SW480 colon adenocarcinoma, p53 Mutant
Description: as §1, §2

NIHOVCAR3 = assay: MTT cell viability, NIHOVCAR3 ovarian cells; assay type: cell-based, human; conditions: p53 Mutant
Description: (§3) Cell viability assay in several human cancer cell lines (See Tables 1 to 10). Cell lines were cultured in RPMI 1640 (or recommended medium when indicated) medium supplemented with 10% fetal calf serum, penicillin (50 IU/mL) and streptomycin ([…]) at 37° C. in 5% CO2. Cell viability studies was carried using the MTT (3-(4,5-dimethylthiazol-2-yl)-2,5-diphenyltetrazolium bromide) assay as previously described (31). Briefly, ≈2×10^3 CRC cells were be seeded in 96-well microtiter plates in 100 μL RPMI 1640 in the presence of 10% calf serum. After 24 h incubation the cells were washed with PBS and treated with 30 μL/well of PBS or RPMI 1640 (or recommended) media containing cyclotides MCo-52, MCoTI-I (used as negative control), nutlin-3a (used as positive control) or MI-77301 (used as positive control for p53-mutated or p53-null cells) at the indicated doses for 1 h at 37° C. in 5% CO2. After 1 h, 210 μL/well of full complemented media was added, the cells were grown for 48 h and then treated with 20 μL of a solution of MTT (5 mg/mL) for 2 h. The medium was discarded and DMSO ([…]) was added to each well and incubated with gentle shaking for 20 min at room temperature. The absorbance at 595 nm of the solution is analyzed using a Tecan Genios Multifunctional Microplate Reader (Tecan System Inc) and the background at 670 nm subtracted. RNA-Seq analysis was performed using state-of-the-art bioinformatics tools. Briefly, raw RNA-Seq reads were mapped to human genome (hg38) using STAR aligner (v2.7.3a). Gencode Release 36 reference was used for annotation. Transcript and gene expression levels were quantified using the IsoEM (37) with default parameters. Counts per million (CPM) method is used for normalization. Differential expression was done using DESeq2 with default parameters. Genes involved in different biological pathways (human) were searched from Geneontology (http://geneontology.org/). Bioinformatics results can be validated by using Partek Flow (v10.0.21.0912), a bioinformatics pipeline developed by Zymo Research (https://www.zymoresearch.com/).
(§4) Tables 1 through 10 show in vitro activity of cyclotide MCo-52-2-cTAT against different human cancer cell lines, some with null-, mutated, or wildtype p53 phenotypes. Cell viability was evaluated using the MTT assay as described above.

SKOV 3 = assay: MTT cell viability, SKOV 3 ovarian cells; assay type: cell-based, human; conditions: p53 Mutant
Description: as §3, §4

ES-2 = assay: MTT cell viability, ES-2 ovarian cells; assay type: cell-based, human; conditions: p53 Mutant
Description: as §3, §4

Capan-1 = assay: MTT cell viability, Capan-1 cells; assay type: cell-based, human; conditions: Capan-1 pancreatic ductal adenocarcinoma, p53 Mutant
Description: as §1, §2

SW1990 = assay: MTT cell viability, SW1990 cells; assay type: cell-based, human; conditions: SW1990 pancreatic adenocarcinoma, p53 Mutant (Deletion)
Description: as §1, §2

BxPC-3 = assay: MTT cell viability, BxPC-3 cells; assay type: cell-based, human; conditions: BxPC-3 pancreatic ductal adenocarcinoma, p53 Mutant
Description: as §1, §2

MIA PaCa-2 = assay: MTT cell viability, MIA PaCa-2 cells; assay type: cell-based, human; conditions: MIA PaCa-2 pancreatic ductal adenocarcinoma, p53 Mutant
Description: as §1, §2

PANC-1 = assay: MTT cell viability, PANC-1 cells; assay type: cell-based, human; conditions: PANC-1 pancreatic ductal adenocarcinoma, p53 Mutant
Description: as §1, §2

CFPAC-1 = assay: MTT cell viability, CFPAC-1 cells; assay type: cell-based, human; conditions: CFPAC-1 pancreatic ductal adenocarcinoma, p53 Mutant
Description: as §1, §2

DU145 = assay: MTT cell viability, DU145 cells; assay type: cell-based; conditions: DU145 prostate carcinoma, p53 Mutant, read-out: Cell viability, Human Prostate Cancer Cells
Description: as §3, §4

PC-3 = assay: MTT cell viability, PC-3 cells; assay type: cell-based; conditions: PC-3 prostate carcinoma, p53 Mutant, read-out: Cell viability, Human Prostate Cancer Cells
Description: as §3, §4

[1] = SW626 colon adenocarcinoma metastatic site: Ovary, MTT (Table 1), read-out: EC50
[2] = SW626 ovarian cells, MTT (Table 7), read-out: Cell Viability Assay

Row | Compound | EC50 (LoVo) [µM] | EC50 (SW620) [µM] | EC50 (HT29) [µM] | EC50 (SW626; [1]) [µM] | EC50 (SW626; [2]) [µM] | EC50 (Caco-2) [µM] | EC50 (SW480) [µM] | EC50 (NIHOVCAR3) [µM] | EC50 (SKOV 3) [µM] | EC50 (ES-2) [µM] | EC50 (Capan-1) [µM] | EC50 (SW1990) [µM] | EC50 (BxPC-3) [µM] | EC50 (MIA PaCa-2) [µM] | EC50 (PANC-1) [µM] | EC50 (CFPAC-1) [µM] | EC50 (DU145) [µM] | EC50 (PC-3) [µM]
1 | COc1ccc(C2=N[C@@H](c3ccc(Cl)cc3)[C@@H](c3ccc(Cl)cc3)N2C(=O)N2CCNC(=O)C2)c(OC(C)C)c1 [Nutlin 3A] | 1.5 ± 0.1 | > 100 | > 100 | > 100 | 50.3 ± 0.2 | > 50 | 58.7 ± 7.5 | 57.7 ± 0.1 | > 100 | 92.3 ± 1.2 | > 100 | > 100 | 38.5 ± 5.1 | > 50 | 41.9 ± 6.9 | > 50 | > 100 | > 100
2 | N=C(N)NCCC[C@@H]1NC(=O)[C@@H](CCCNC(=N)N)NC(=O)[C@H](CCCCN)NC(=O)[C@@H](N)CCCCNC(=O)CC[C@@H](C(=O)O)NC(=O)[C@@H](CCCNC(=N)N)NC(=O)[C@H](CCCNC(=N)N)NC(=O)[C@@H](CCCCN)NC(=O)[C@H](CCCCN)NC(=O)[C@@H](CCCNC(=N)N)NC(=O)CNC(=O)[C@@H](CCCNC(=N)N)NC1=O [cTAT] (H-KK[dR]R[dR]G[dR]K[dK]R[dR]E-OH; lactam 1-12; N-terminus and C-terminus assumed) | > 100 | > 100 | > 100 | > 100 | > 100 | > 100 | > 100 | > 100 | > 100 | > 100 | > 100 | > 100 | > 100 | > 100 | > 100 | > 100 | > 100 | > 100
3 | I: cyclo(ACICRHDSYCGSGSDGGVCPNLYLLCRRDKDCPG) / II: KK[dR]R[dR]G[dR]K[dK]R[dR][isoGln] (disulfide I:2-I:19, I:4-I:26, I:10-I:32; linker I:30-II:N via X1; lactam II:1-II:C) [Cyclotide 52-2-cTAT] | 10.7 ± 0.9 | 15.3 ± 2 | 9.9 ± 0.9 |  | 27.5 ± 0.7 | 11.7 ± 0.8 | 10.9 ± 1.3 | 7.8 ± 0.1 | 19.1 ± 0.1 | 6.38 ± 0.1 | 3.3 ± 0.3 | 11.9 ± 1.3 | 10.6 ± 1 | 15.4 ± 1.6 | 20.5 ± 2.5 | 13.4 ± 1.8 | 37 ± 1.2 | 23.2 ± 0.6
